Assay [1] concerns the target T1, glycine binding site of the NMDA receptor (Rattus norvegicus, UniProt P35439).
T1 construct: rat brain membrane homogenates that are enriched in NMDA receptors; tissue Pel-Freez, Rogers, Arkansas (frozen rat brains); host or cells: rat brain membrane homogenate
The assay can be described thus: 1 μM glycine-stimulated [3H]-MK801 binding assay, brain membrane homogenates. As to the method: This assay takes advantage of the dependence of the binding of [^3 H]-MK801 to the PCP receptor inside the pore of the NMDA channel on the presence of both glutamate and glycine. In the absence of glycine, but in the presence of glutamate, [^3 H]-MK801 cannot bind effectively to the PCP receptor because the NMDA channel remains closed and access of [^3 H]-MK801 to the PCP receptor inside the closed channel pore is severely restted.
The assay is conducted using rat brain membrane homogenates that are enriched in NMDA receptors. The membranes are prepared as follows. Frozen rat brains (obtained from Pel-Freez, Rogers, Arkansas) are homogenized in 15 volumes (w/v) of ice cold 0.32 M sucrose. The homogenate is spun at 1,000×g for ten minutes. The supernatant is collected and spun for 20 minutes at 44,000×g. The pellet is suspended in 15 volumes of water (relative to original brain weight). The homogenate is again spun at 44,000×g for twenty minutes. The pellet is resuspended in 5 volumes of water and the suspension is freeze-thawed 2 times. After the final thaw cycle, the suspension is brought to 15 volumes with water and spun at 44,000×g for twenty minutes. The pellet is resuspended in 5 volumes of ice-cold 10 mM HEPES, and is titrated to pH 7.4 with KOH containing 0.04% Triton X-100. Membranes are incubated with the Triton/HEPES buffer at 37° C. for 15 minutes. The volume is then brought to 15 with ice-cold 10 mM HEPES, pH 7.4, and spun/washed three times with spins of 44,000×g between washes. The final pellet is suspended in three volumes of 50 mM HEPES, pH 7.4, and the protein concentration is determined with a standard dye-binding protein assay (Bio-Rad, Richmond, Calif.). The suspension is stored at -80° C. until used. Only HPLC grade water is used for all buffers and suspensions/washings. The extensive washings are necessary to remove as much endogenous glycine from the membrane preparation as possible.
Nonspecific binding is defined as the difference in binding that occurs in the absence or presence of-PCP (final concentration: 100 μM). To determine the effect of 1 μM glycine on the binding of [^3 H]-MK801, bound radioactivity in the presence of 10 μM glutamate alone (final concentration) is subtracted from the bound radioactivity in the presence of both 10 μM glutamate and 1 μM glycine (final concentration). A 500 nM concentration (final) of 5,7-dichlorokynurenic (DCK) acid is added to all assay tubes. This concentration of the glycine antagonist DCK "buffers" most of the residual endogenous glycine that is not removed by the extensive washing steps that are carried out during the membrane preparation procedure.
The assays are incubated for 120 minutes at room temperature after which time the membrane-bound radioactivity is isolated from the free radioactivity by vacuum filtration through Whatman glass fiber filters that had been pretreated with 0.3% polyethyleneimine. Filtration is accomplished using a Brandel,48 well cell harvester. Filtered membranes are washed three times with 3 mL each of ice cold buffer. Filters are transferred to scintillation vials and 5 mL of scintillation cocktail is added. The vials are shaken overnight and the radioactivity is counted by liquid scintillation spectroscopy. The assays are done in triplicate and all experiments are conducted at least three times.

Assay [2] has as its target NMDA receptor glycine sites. The assay can be described thus: electrophysiological assay, cloned rat NMDA receptors expressed in Xenopus oocytes. The assay is classed as cell-based. The conditions noted are these: Table II; from electrophysiology using Xenopus oocytes. The source says: (§1) The binding affinities of quinoxaline-2,3-diones at NMDA receptor glycine sites also were estimated by electrophysiological assays with either cloned rat NMDA receptors expressed in Xenopus oocytes, or non-NMDA receptors expressed in oocytes by whole rat brain poly(A)^+ RNA. […] For NMDA receptors Ki values were approximated by averaging values at three subtype combinations (NR1A/NR2A, NR1A/NR2B, and NR1A/NR2C).

In assay [3] the test system is glycine binding site of the NMDA receptor. The conditions noted are these: literature, cited from earlier work.
The target in the next assay is glycine binding site (Rattus norvegicus, UniProt P35439). The assay can be described thus: affinity for the glycine binding site / glycine/NMDA receptor (Ki; method not stated).
From the text: as §1

The next assay concerns mice. The assay can be described thus: anticonvulsant activity in maximum electroshock seizure (MES) experiments in mice. In kind it is in vivo, male Swiss/Webster mice. The note with it: for ED50 as an anticonvulsant in the MES experiment in mice: route not stated. As to the method: The seizure stimulus parameters were: 50 mA, 60 Hz, rectangular pulse, width 0.8 msec, duration 200 msec. Tonic hind limb extension observed after application of the electrical stimulus was recorded as occurrence of seizure. The drug was applied i.v. as an aqueous Tris (Tromethamine) solution.

The test system of a further assay is neurons. The conditions noted are these: literature; cited from earlier work.
[4] abbreviates: Table II, footnote b, from binding assays, read-out: Ki.

Here are results for 31 molecules from patent publication US6251903A, “Alkyl, azido, alkoxy, and fluoro-substituted and fused quinoxalinediones and the use thereof as glycine receptor antagonist” (priority 2000, dated 2001).

Structures are written as SMILES. Where two headings read alike, the source gives them in different places.

One may read the Ki as a dissociation constant, usually derived from enzyme kinetics or from competition with a known ligand. Turning to `CCc1c(Cl)cc2nc(O)c(O)nc2c1[N+](=O)[O-]` [NO2 Et Cl H, 7-Chloro-6-ethyl-5-nitro-1,4-dihydroquinoxaline-2,3-dione], in assay [1], affinity was put at a Ki of 0.2 µM.
Turning to `N#Cc1c(Cl)c([N+](=O)[O-])cc2[nH]c(=O)c(=O)[nH]c12` [CN Cl NO2 H, 6-Chloro-5-cyano-7-nitro-1,4-dihydroquinoxaline-2,3-dione], the Ki in assay [2] turned out to be 0.05 µM.
With `CCc1cc2[nH]c(=O)c(=O)[nH]c2cc1CC` [H Et Et H, 6,7-Diethyl-1,4-dihydroquinoxaline-2,3-dione], the Ki in assay [1] was found to be 0.8 µM.
Turning to `CCc1cc2nc(O)c(O)nc2c([N+](=O)[O-])c1Cl` [NO2 Cl Et H, 6-Chloro-7-ethyl-5-nitro-1,4-dihydroquinoxaline-2,3-dione], in assay [1], affinity was put at a Ki of 0.04 µM.
With `CCc1cc(Br)cc2[nH]c(=O)c(=O)[nH]c12` [Et H Br H, 7-Bromo-5-ethyl-1,4-dihydroquinoxaline-2,3-dione], the Ki in assay [2] was found to be 0.9 µM.
Take `Cc1cc2[nH]c(=O)c(=O)n(CC(=O)O)c2cc1C` [Example 4a]: the “glycine site antagonism or affinity (words)” value in assay [3] is on record as “functional antagonism”.
On to `CCc1cc2[nH]c(=O)c(=O)[nH]c2cc1Cl` [H Cl Et H, 6-Chloro-7-ethyl-1,4-dihydroquinoxaline-2,3-dione], for which the Ki in assay [1] is 0.73 µM.
`Cc1cc(C)c2[nH]c(=O)c(=O)[nH]c2c1` [Me H Me H, 5,7-Dimethyl-1,4-dihydro-2,3-quinoxalinedione]: the Ki in assay [2] is 1.7 µM.
Take `Cc1cc([N+](=O)[O-])c2[nH]c(=O)c(=O)[nH]c2c1` [NO2 H Me H, 7-Methyl-5-nitro-1,4-dihydro-2,3-quinoxalinedione]: in assay [2], the Ki amounted to 1.2 µM.
With `O=[N+]([O-])c1c(OCCCc2ccccc2)c(F)cc2nc(O)c(O)nc12` [NO2 O(CH2)3 Ph F H, 7-Fluoro-6(3-phenylpropoxy)-5-nitro-1,4-dihydroquinoxaline-2,3-dione], the affinity in assay [1], expressed as Ki, was 6.7 µM.
Consider `Cc1c(F)cc2[nH]c(=O)c(=O)[nH]c2c1[N+](=O)[O-]` [NO2 Me F H, 7-Fluoro-6-methyl-5-nitro-1,4-dihydro-2,3-quinoxalinedione], for which the inhibitory constant (Ki) (in assay [2]; on glycine binding site) was 0.053 µM in each case. Further, in the assay on mice (Table III, i.v. injection), the “ED50 (MES)” value stood at 2 mg/kg. Further, in the assay with mice, the “ED50 as an anticonvulsant in the MES experiment in mice” value is reported as 2 mg/kg.
One may read the ED50 as the dose that gives a 50% effect, or the effect in half of the subjects. Take `[N-]=[N+]=Nc1c(F)cc2[nH]c(=O)c(=O)[nH]c2c1[N+](=O)[O-]` [NO2 N3 F H, 6-Azido-7-fluoro-5-nitro-1,4-dihydroquinoxaline-2,3-dione]: the Ki was 0.28 µM in assay [2] and 0.28 µM at glycine binding site (Table III, read-out: Ki). Besides, the ED50 in the assay on mice (Mus musculus, iv, Table III, i.v. injection, read-out: ED50 (MES)) amounted to 7.5 mg/kg.
As to `Cc1ccc2[nH]c(=O)c(=O)[nH]c2c1` [H Me H H, 6-Methyl-1,4-dihydro-2,3-quinoxalinedione], in assay [1] (setting [4]), the Ki was determined as 9 µM.
For the molecule `Cc1c(Br)cc2nc(O)c(O)nc2c1[N+](=O)[O-]` [NO2 Me Br H, 7-Bromo-6-methyl-5-nitro-1,4-dihydroquinoxaline-2,3-dione], the Ki in assay [1] stood at 0.04 µM.
Turning to `Cc1cc2[nH]c(=O)c(=O)[nH]c2cc1C` [H Me Me H, 6,7-Dimethyl-1,4-dihydroquinoxaline-2,3-dione], the Ki in assay [2] was 0.98 µM.
Take `Cc1c(Cl)cc2nc(O)c(O)nc2c1N` [NH2 Me Cl H, 5-Amino-7-chloro-1,4-dihydro-6-methylquinoxaline-2,3-dione]: in assay [1], affinity was put at a Ki of 0.5 µM.
In the case of `c1ccc(C2(N3CCCCC3)CCCCC2)cc1` [PCP, phencyclidine], the “neuroprotective efficacy” value in the assay with neurons is “have neuroprotective efficacy both in vitro and in vivo”.
In turn, `COc1c(Cl)cc2[nH]c(=O)c(=O)[nH]c2c1[N+](=O)[O-]` [NO2 OMe Cl H, 7-Chloro-6-methoxy-5-nitro-1,4-dihydroquinoxaline-2,3-dione] had an inhibition constant Ki in assay [1] of 0.45 µM.
As to `Cc1cc2[nH]c(=O)c(=O)[nH]c2c([N+](=O)[O-])c1Cl` [NO2 Cl Me H, 6-Chloro-7-methyl-5-nitro-1,4-dihydroquinoxaline-2,3-dione], the inhibition constant Ki (in assay [2]; on glycine binding site) was 0.027 µM each time. Besides, the “ED50 as an anticonvulsant in the MES experiment in mice” value in the assay on mice was 2 mg/kg.
With `O=c1[nH]c2cc3c(cc2[nH]c1=O)CCC3` [H CH2 CH2 CH2 H, Cyclopento[g]-1,4-dihydroquinoxaline-2,3-dione], in assay [2], the Ki stood at 6.3 µM.
Same read-out and setting: the figure for `[N-]=[N+]=Nc1c(Cl)c(Cl)cc2[nH]c(=O)c(=O)[nH]c12` [N3 Cl Cl H, 5-Azido-6,7-dichloro-1,4-dihydroquinoxaline-2,3-dione] is 0.071 µM.
Turning to `O=c1[nH]c2cc(Cl)c(Cl)cc2[nH]c1=O` [6,7-dichloro-1,4-dihydroquinoxaline-2,3-dione], the “glycine site antagonism or affinity (words)” value in assay [3] is “competitive antagonist specific to the strychnine-insensitive [^3 H] glycine binding sites”; in assay [3] (listed as drawing 6), “competitively displaced the strychnine-insensitive binding of [^3 H]glycine, without affecting the other binding sites on the NMDA receptor complex”.
On to `N#Cc1c(Cl)c(Cl)cc2[nH]c(=O)c(=O)[nH]c12` [CN Cl Cl H, 5-Cyano-6,7-dichloro-1,4-dihydroquinoxaline-2,3-dione], for which the Ki in assay [2] was found to be 0.015 µM.
With `Cc1c([N+](=O)[O-])c([N+](=O)[O-])c(Cl)c2[nH]c(=O)c(=O)[nH]c12` [Cl NO2 NO2 Me, 5-Chloro-6,7-dinitro-8-methyl-2,3-quinoxalinedione], the Ki in assay [1] was 3.8 µM.
With `CCOc1c(F)cc2[nH]c(=O)c(=O)[nH]c2c1[N+](=O)[O-]` [NO2 OEt F H, 7-Fluoro-6-ethoxy-5-nitro-1,4dihydroquinoxaline-2,3-dione], the Ki in assay [2] turned out to be 1 µM.
Still for that read-out and setting: the figure for `O=c1[nH]c2cc3c(c([N+](=O)[O-])c2[nH]c1=O)CCC3` [NO2 CH2 CH2 CH2 H, 5-Nitrocyclopento[g]-1,4-dihydroquinoxaline-2,3-dione] is 0.8 µM.
Turning to `COc1c(F)cc2[nH]c(=O)c(=O)[nH]c2c1[N+](=O)[O-]` [NO2 OMe F H, 7-Fluoro-6-methoxy-5-nitro-1,4-dihydroquinoxaline-2,3-dione], the Ki (in assay [2]; on glycine binding site) was 0.32 µM throughout. For the same molecule, the “ED50 (MES)” value in the assay on mice (Table III, i.v. injection) is recorded as 7.5 mg/kg.
Turning to `[N-]=[N+]=Nc1ccc2[nH]c(=O)c(=O)[nH]c2c1` [H N3 H H, 6-azidol-1,4-dihydroquinoxaline-2,3-dione], the Ki in assay [1] (setting [4]) is 0.91 µM; at glycine binding site (Table I, read-out: Ki) it was 0.21 µM. For the same molecule, the “binding to the glycine binding site” value on glycine binding site (Table I, compared with other 6-substituted derivatives) is given as “quite favorably binds”.
In turn, `CCCCOc1c(F)cc2nc(O)c(O)nc2c1[N+](=O)[O-]` [NO2 OBu-n F H, 7-Fluoro-6-(n-butoxy)-5-nitro-1,4-dihydroquinoxaline-2,3-dione] came in with an inhibitory constant (Ki) in assay [1] of 6.5 µM.
With `[N-]=[N+]=Nc1c(Cl)cc2[nH]c(=O)c(=O)[nH]c2c1Cl` [Cl N3 Cl H, 6-azido-5,7-dichloro-1,4-dihydroquinoxaline-2,3-dione], the inhibition constant Ki in assay [2] came out at 0.536 µM.
Regarding `CCSc1c(Cl)cc2[nH]c(=O)c(=O)[nH]c2c1[N+](=O)[O-]` [NO2 SEt Cl H, 7-Chloro-1,4-dihydro-6-ethylthio-5-nitroquinoxaline-2,3-dione], in assay [2], the Ki is 0.5 µM.
